Among the data in a melting point compilation (Tetko et al.; mined from patent text by program, amines drawn as free bases though some values may be those of a salt) are melting point values, retold here.

Broadly, the melting point is the temperature, or range, at which the solid turns liquid. As for `CCNC(=O)n1nc(Oc2c(Cl)cc(C(F)(F)F)cc2Cl)c(CC)c1C`, the melting point was 120 to 123 °C. In turn, `CCN(CC)C(=O)c1cn(-c2cccc(Cl)c2)cn1` registered a melting point of 105 °C. Compound `OCC(Br)c1ccccc1` (stereo not drawn) came in with a melting point of 38 to 39 °C.

`CC(Oc1ccc(Oc2cnc3cc(Cl)ccc3n2)cc1F)C(=O)O` (stereo not drawn) registered a melting point of 132 to 138 °C. As for `CC1COc2c(F)c(F)cc3c(=O)[nH]c(=O)n1c23` (stereo not drawn), the melting point lay within 259 to 261 °C. Take `COc1ccc(-c2nnn(-c3ccc(C(F)(F)F)cc3F)c2C)cc1`: the melting point lay in the range of 154 to 155 °C. Compound `Cc1nc2cccc(F)c2c(=O)n1C1CCC(=O)NC1=O` (stereo not drawn) displayed a melting point of 275 to 277 °C. On to `C/C(=C\c1ccc(O)cc1)c1ccc2c(c1)C(C)(C)CCC2(C)C`, for which the melting point lay in the range of 138 to 140 °C. Consider `CC(CCl)CCCC(C)C1CCC2C3=CC=C4C(C)(C)C(O[Si](C)(C)C(C)(C)C)CCC4(C)C3CCC21C` (stereo not drawn), for which the melting point is 114 to 116 °C.

For `O=C1NC(c2ccccc2)=C2C(=O)OC(c3ccc(Br)cc3)=C12`, the melting point was 295 °C. As for `O=C(CC1CCCCC1=O)c1ccc(Cl)c(Cl)c1` (stereo not drawn), the melting point lay within 78 to 79 °C. `Cc1cc(-c2c(F)cc3c(=O)c(C(=O)O)cn4c3c2S(=O)CC4C)cc(C)n1` (stereo not drawn) gave a melting point of 294 to 295 °C. In turn, `CCCC(C(C)=CC(CNC(=O)Cc1cccnc1)=NO)[N+](=O)[O-]` (stereo not drawn) gave a melting point of 128 to 129 °C. In turn, `O=C(Nc1ccccc1)C1C(=O)Sc2ccccc21` (stereo not drawn) gave a melting point of 140 to 142 °C. Regarding `COc1ccc(-c2oc3cc(NS(C)(=O)=O)c(Oc4ccccc4)cc3c(=O)c2O)cc1OC`, the melting point is 222 to 224 °C. `COC(=O)c1cc(C)c(C(OC(=O)C(C)NS(=O)(=O)c2ccc(Cl)cc2)c2cc(-n3ccnc3)ccc2C)c(C)c1` (stereo not drawn) gave a melting point of 126 to 128 °C. In the case of `Cc1ccccc1C(=O)NCN1CCN(c2ccccc2C#N)CC1`, the melting point was 62 to 64 °C.

For the compound `Cc1cc(C)c(Nc2nc(C)ccc2S(=O)(=O)c2ccc(OCc3cccc(F)c3F)cc2)c(C)c1`, the melting point fell in the range of 136 to 138 °C. Compound `O=c1c2ccc3[nH]cc(CCNS(=O)(=O)c4ccccc4)c3c2ccn1Cc1ccccc1` yielded a melting point of 205 to 206 °C. For the compound `COC(=O)CCCC#Cc1nc(C(F)(F)F)ccc1N`, the melting point turned out to be 49 °C.

On to `CCCCCC(=O)C=P(c1ccccc1)(c1ccccc1)c1ccccc1`, for which the melting point is 54 to 56 °C. As to `CNC(=O)c1nn(-c2ccccc2)c(O)c1N=Nc1ccc(S(=O)(=O)NCCCCCCBr)cc1`, the melting point was 234 to 236 °C.

Consider `O=C(O)c1ccccc1Oc1ccc(Br)cc1[N+](=O)[O-]`, for which the melting point is 136 to 138 °C. `CC(C)c1cccc2c1N(CC(=O)N1CC3CCC(CC3)C1)C(=O)C(NC(=O)Nc1cccc(-c3nnn[nH]3)c1)N=C2c1ccccc1F` (stereo not drawn) registered a melting point of 212 to 222 °C.

The compound `Cc1nc2c(cnn2-c2c(Cl)cc(C(F)(F)F)cc2Cl)c(=O)n1C` registered a melting point of 195 °C. In the case of `CCCc1c(OCCCSCCO)ccc(C(C)=O)c1O`, the melting point was in the range of 72 to 74 °C. `Cn1c(=O)c2sccc2n2cnc(-c3nc(C4CC4)no3)c12` gave a melting point of 206 to 207 °C.

Take `CCOCCNc1nc(C)c(CCO)c(=O)[nH]1`: the melting point amounted to 172 °C. Compound `Cc1ccc(Nc2ncc(C#N)c(-c3ccc(C(C)(C)N)cc3)n2)cc1F` showed a melting point of 209 °C. With `O=C1Nc2cccnc2N(CC#CCN2CCCCC2)c2ccccc21`, the melting point was determined as 198 °C. In turn, `COC(=O)CN1C(=O)CN=C(c2ccccc2)c2cc(Cl)ccc21` gave a melting point of 137 to 138 °C. In turn, `O=C(O)c1ccnc2[nH]c(CCc3ccccc3)cc12` gave a melting point above 300 °C. Next, `CC(C)CCCC(C)NC1=NS(=O)(=O)c2sc(Cl)cc2N1` (stereo not drawn): 197 to 199 °C. With `COC1CN(C(C)CC(C(=O)N(C)C)(c2ccccc2)c2ccccc2)CCC1NC(=O)c1cccc(C(F)(F)F)c1` (stereo not drawn), the melting point was 198 °C. Consider `CCCCCc1c(C(C)O)nc(C(C)C)c(CO)c1-c1ccc(F)cc1` (stereo not drawn), for which the melting point was 125 to 127 °C. Turning to `COC(=O)C(CCCCNC(=O)COCc1ccccc1)NC(=O)COCc1ccccc1` (stereo not drawn), the melting point was 62 to 65 °C. As for `CN(C)S(=O)(=O)Cc1ccccc1N`, the melting point fell in the range of 70 to 78 °C.

In the case of `NC(=O)c1ccc(OCCn2ccnc2)cc1`, the melting point was 148 to 149 °C.

The compound `CCOC(=O)Cc1ccc(-c2nc(COc3cc(C(=O)OC)on3)c(C)o2)cc1` yielded a melting point of 124 to 126 °C. The compound `COc1ccccc1Oc1c(N=[N+]=[N-])nc(-c2ncccn2)nc1C(=O)OCCO` returned a melting point of 133 to 134 °C. For `OC(CCCCCOCc1ccccc1)c1cccc(OCc2ccc3ccccc3n2)c1` (stereo not drawn), the melting point fell in the range of 86 to 89 °C. Take `Cc1ccc(NN)c2c1CC(C)O2` (stereo not drawn): the melting point is 90 to 92 °C.

As to `COCCOCc1ccc(C#CC2(O)CN3CCC2CC3)c(F)c1` (stereo not drawn), the melting point fell in the range of 117 to 118 °C. For the compound `CCOC(=O)c1c[nH]c2c(OCOC)ccc(OC)c2c1=O`, the melting point fell in the range of 175 to 177 °C. In the case of `N#Cc1ccc(C(F)(F)F)cc1Sc1ccccc1` it was 51 °C; in that of `Cn1c(C=NNC(N)=S)cnc1[N+](=O)[O-]`, 282 to 287 °C; in that of `CCC(=CC(CSc1nc2ccccc2s1)=NO)C(C)[N+](=O)[O-]` (stereo not drawn), 102 to 103 °C. With `COCCN1CCc2ccc(Nc3ncc(Cl)c(Nc4ccccc4C(=O)NC(C)C)n3)cc2CC1`, the melting point was in the range of 186 to 189 °C.

In turn, `CN1C(=O)C(C(=O)OCCN2CCOCC2)N=C(c2ccccc2)c2cc(Cl)ccc21` (stereo not drawn) gave a melting point of 162 to 166 °C. Next, `O=C(C=Cc1ccc(Cl)c([N+](=O)[O-])c1)N1CCc2c([nH]c3ccccc23)C1c1ccc2c(c1)OCO2` (stereo not drawn): 240 °C; `CCCC(=O)Oc1ccc2nc(NC(=O)Nc3ccccc3)sc2c1`: 207 to 211 °C; `COc1cccc2c1nc(C(F)F)n2-c1nc(-c2ccc(N)nc2)nc(N2CCOCC2)n1`: 259 to 261 °C. The compound `COc1ccc(N2CCN(c3c(C)c(C)c4c(c3C)C(NCc3ccccc3)C(C)(C)O4)CC2)cc1` (stereo not drawn) registered a melting point of 93 to 95 °C. In turn, `CC(=O)Nc1ccc2c(-c3ccccc3)c([N+](=O)[O-])oc2c1` displayed a melting point of 212 to 214 °C.

With `Cc1c(Br)c(=O)n(-c2cc(C(=O)OC(C)C)c(Cl)cc2F)c(=O)n1C`, the melting point lay in the range of 127 to 129 °C.

The compound `Cc1c(Cl)sc2c1c(-c1ccccc1)nc(=O)n2C` returned a melting point of 190 to 192 °C. In the case of `CCC(OCC(F)(F)F)c1ccc(Cl)c2nc3n(c12)CCCN3c1ccc(N(C)C)nc1C` (stereo not drawn) it was 144 to 146 °C; in that of `COc1ccc(C2(C#N)CCC(=NO)CC2)cc1OC1CCCC1` (stereo not drawn), 50 to 53 °C; in that of `CCOC(=O)c1c(Nc2c(C)cccc2Cl)n[nH]c1C`, 158 to 159 °C.

With `O=C(Nc1ccc(F)cc1)Oc1ccc2c(c1)N(Cc1ccccc1)CCC2`, the melting point was 130 °C.

`N#CC1CCCCC1n1nc(-c2c(-c3ccccc3)nn3ccccc23)ccc1=O` (stereo not drawn) registered a melting point of 214 °C. Compound `CCOCCn1c(C(=O)C2CCN(C(=O)OC(C)(C)C)CC2)nc2ccccc21` had a melting point of 96 to 98 °C. On to `CC(=O)C1CCC2C3CCC4CC(O)CCC4(C)C34OC4CC12C` (stereo not drawn), for which the melting point was 160 to 162 °C.

As for `O=CC1(Br)C2CCC(CC2)C1c1ccccc1` (stereo not drawn), the melting point fell in the range of 65 to 66 °C. For `O=[N+]([O-])c1cccnc1NCc1ccccn1`, the melting point came out at 114 °C.

In the case of `CCn1c(-c2c(Cl)cccc2Cl)nc(-c2ccnc(Cl)c2)c1-c1ccc(Cl)cc1`, the melting point fell in the range of 187 to 189 °C. For the compound `CCOC(=O)c1cc2c(C)ccc(N(CC)S(=O)(=O)c3cccs3)c2[nH]1`, the melting point is 148 to 149 °C. In the case of `N#CC1=CCOc2ccc(F)cc21` it was 114 to 115 °C; in that of `Oc1ccc(Cl)c(-n2ccnc2)c1`, 204 to 205 °C; in that of `CC1(C)CCCC(NC(=O)OC(C)(C)C)C(=O)N1` (stereo not drawn), 118 to 120 °C. The compound `CC1(C)C(=O)N(CCCN(CCCN2C(=O)c3ccccc3C(C)(C)C2=O)Cc2ccccc2)C(=O)c2ccccc21` returned a melting point of 108 °C. In the case of `COc1cc(Oc2cccc(SC(F)(F)F)c2)nc(C(=O)NC(C)C)c1` it was 70 to 76 °C. For the compound `CCCCn1nc(C(F)(F)CCC)nc1Cc1ccc(-c2ccccc2-c2nnn[nH]2)nc1`, the melting point lay in the range of 135 to 136 °C. `CCOC(=O)c1cc(-n2c(=O)[nH]c3c(c2=O)CSC3)ccc1Cl`: the melting point is 194 to 196 °C. As to `COC(=O)c1ccc(CBr)c(OCC(=O)c2ccc(OC)c(C34CC5CC(CC(C5)C3)C4)c2)c1`, the melting point came to 165 °C. On to `CCCCC(=O)c1ccc(Cl)c(Cl)c1`, for which the melting point lay in the range of 40 to 41 °C. Regarding `CCCc1c(OCCCCCC(=O)c2cc(OC)c(OC)c(C(C)C)c2)ccc(C(=O)O)c1O`, the melting point lay in the range of 113 to 115 °C. In turn, `COc1cc2c(Nc3ccc(Cl)cc3F)ncnc2cc1OCCCn1ccccc1=O` gave a melting point of 216 to 218 °C. For `Nc1nc2c(sc(=O)n2CCCCC(=O)O)c(=O)[nH]1`, the melting point is 263 to 265 °C.

`Cc1nc2ccc3nc(O)c(O)nc3c2nc1C` had a melting point above 300 °C. Turning to `COc1cc(CCCC2SC(=O)NC2=O)cc(OC)c1OCc1coc(/C=C/c2ccccc2)n1` (stereo not drawn), the melting point lay within 163 to 164 °C. Compound `COc1cccc(C2=C(c3cn4c5c(cccc35)CCC4)C(=O)NC2=O)c1` yielded a melting point of 99 to 101 °C. With `CC1(C)CC(=O)c2c(ncc3[nH]c4ccccc4c23)C1`, the melting point fell in the range of 224 to 225 °C. Regarding `N#Cc1cnc(Nc2ccc(F)cc2)nc1-c1ccc(N)nc1`, the melting point came to 289 °C. Take `CC(=O)c1ccc(NS(C)(=O)=O)c(Oc2ccc(F)cc2F)c1`: the melting point was in the range of 117 to 118 °C. The compound `Nc1ccc2nc3c(c(N)c2c1)C(=O)CCC3` showed a melting point of 310 °C.

On to `NC(=O)[C@@H]1CCCN1C(=O)CNC(=O)OCc1ccccc1`, for which the melting point was 142 to 143 °C.

Compound `C=CCn1c(NCc2cccnc2)nc(N2CCc3ccccc3CC2)c(C#N)c1=O` displayed a melting point above 200 °C.
